Type in all cases: cell-based, human
Assay [1] has as its system 15 non small cell lung cancer lines representing various EGFR and KRAS mutations. In words: Dose response studies against 15 NSCLC lines (alamar blue). The method, then:
Dose response studies against 34 compounds from the pyridazinone and phenylfuran-carboxamide class were conducted. […] In addition, Tarceva was included in these dose response studies.
The dose response studies were done with the following standard procedure. First, the cells were counted and dispensed at 250 cells/well into 384-well microplates with compound. The cells were incubated for 48 hours at 37 C to complete treatment, and then alamar blue was added for an additional 48 hours. Finally, alamar blue reduction was measured and the data was loaded into ORIS, our data screening acquisition platform.
(Alamar Blue is a resazurin reagent that responds to reducing activity.)

The subject of assay [2] is H1975. In words: Non Small Cell Lung Cancer Proliferation Assay (Alamar Blue). As to conditions: for inhibition at 10 µM: Homo sapiens, NCI-H1975. On the procedure:
(§1) Non Small Cell Lung Cancer cell lines are grown and maintained in Corning 175 cm2 flasks in RPMI 1640 media supplemented with 10% FBS, 1% antibiotic solution, 1% additional glutamine and pyruvate. These cells have a doubling time of 1-2 days. All cell types are adherent and grow in colonies. The cells should be kept at a density between 50,000 cells/mL-500,000 cells/mL to provide for optimum growth and adequate nutrition. The cell line should be maintained at 37° C. in a humidified atmosphere with 5% CO2 in a sterile cell culture incubator.
(§2) To perform the assay, the Non Small Cell Lung Cancer lines are diluted in media and plated into 384 well microplates at a final density of 250 cells in 45 μL. To ensure consistency and minimal pipetting error, the cells are plated using the Multidrop 384 with the following settings: Rocker Switch set at 384, Volume 45 and Column 24.
(§3) Low Controls for this assay are made by treating Non Small Cell Lung Cancer cells with 5 ul of staurosporine at 250 uM in 10% DMSO and 1% SDS. [Final concentration in this assay is 25 uM staurosporine in 1% DMSO and 0.1% SDS.]
(§4) High Controls for this assay are made by treating Non Small Cell Lung Cancer cells with 5 ul of 10% DMSO. [Final concentration in this assay is 1% DMSO].
(§5) The remaining wells of the 384 microplate may be treated with different compounds depending on the study. Important Note: All compounds for testing in this assay should be done at the final concentration of 1% DMSO.
(§6) After addition, the cells are placed in cell culture incubator at 37° C. for 48 hours for complete treatment.
(§7) After drug treatment, cytotoxicity is measured by Alamar Blue reduction. 5 μL of Alamar Blue is added to the 384 microplates using the Flexdrop.
(§8) The cells are incubated for 48 hours at 37° C. to complete the Alamar Blue reduction.
(§9) The final step in the assay is to measure the amount of Alamar Blue reduction. […] The Alamar Blue fluorescence is measured at an excitation of 530 nm and emission of 590 nm.
(§10) For the NSCLC project, the cell based assay was screened against a small molecule library of approximately 200,000 compounds. The compound library is stored in our automated robotic freezer (Biophile) at −20° C. in 100% DMSO. Compound freeze and thaw cycles are kept to a minimum. Compounds for use are diluted into the appropriate concentration and plated into 384 well microplates using our custom built low volume 384-well head tool (TPS 384, Apricot Designs Inc., CA, USA). This assay was performed on a fully automated linear track robotic platform (CRS F3 Robot System, Thermo Electron Corp., Ontario, Canada) utilizing several integrated peripherals for plate handling, liquid dispensing, and readout detection. First, non-small cell lung cancer cell lines are dispensed into 384 well microplates (Corning #3712 Tissue Culture Treated Plate, Corning, N.Y., USA) with 5 μL of test compounds at 100 uM in 10% DMSO for screening studies or 1 mM in 10% DMSO to 50 nM in 10% DMSO for dose response studies. The microplates are then placed at 37° C. for 48 hours to complete treatment of cells with compounds. Next, 5 ul of alamar blue was added using a liquid dispenser (FlexDrop Precision Dispenser, Perkin Elmer, Mass., USA) and incubated for 48 hours at 37° C. The alamar blue prompt fluorescence was measured on Victor V (Victor^3 V, Perkin Elmer, Mass., USA) and output data files were loaded into ORIS (Oncology Research Informatics System, MSKCC, NY, USA), a screening data acquisition and analysis platform.

Assay [3] relates to H1650. Described as above. As to conditions: for inhibition at 10 µM: Homo sapiens, NCI-H1650. On the procedure: as §1, §2, §3, §4, §5, §6, §7, §8, §9, §10
The test system of assay [4] is H3255. The description is as above. The settings on record: for inhibition at 10 µM: Homo sapiens, NCI-H3255. On the procedure: (§11) These cells have a doubling time of 1-2 days. All cell types are adherent and grow in colonies. The cells should be kept at a density between 50,000 cells/mL-500,000 cells/mL to provide for optimum growth and adequate nutrition. The cell line should be maintained at 37° C. in a humidified atmosphere with 5% CO2 in a sterile cell culture incubator.
(§12) To perform the assay, the Non Small Cell Lung Cancer lines are diluted in media and plated into 384 well microplates at a final density of 250 cells in 45 μL.
as §4
(§13) Important Note: All compounds for testing in this assay should be done at the final concentration of 1% DMSO.
as §6
(§14) After drug treatment, cytotoxicity is measured by Alamar Blue reduction.
as §8, §9
as §10, with “Compounds for use are diluted into the appropriate concentration and plated into 384 well microplates using our custom built low volume 384-well head tool (TPS 384, Apricot Designs Inc., CA, USA).” left out, “First, non-small cell lung cancer cell lines are dispensed into 384 well microplates (Corning #3712 Tissue Culture Treated Plate, Corning, N.Y., USA) with 5 μL of test compounds at 100 uM in 10% DMSO for screening studies or 1 mM in 10% DMSO to 50 nM in 10% DMSO for dose response studies.” left out

For assay [5], the system named is H2030. The description is as above. As to conditions: for inhibition at 10 µM: Homo sapiens, NCI-H2030. On the procedure: as §11, §12, §4, §13, §6, §14, §8, §9
as §10, with “Compounds for use are diluted into the appropriate concentration and plated into 384 well microplates using our custom built low volume 384-well head tool (TPS 384, Apricot Designs Inc., CA, USA).” left out, “First, non-small cell lung cancer cell lines are dispensed into 384 well microplates (Corning #3712 Tissue Culture Treated Plate, Corning, N.Y., USA) with 5 μL of test compounds at 100 uM in 10% DMSO for screening studies or 1 mM in 10% DMSO to 50 nM in 10% DMSO for dose response studies.” left out

Setting [6] is: HPL1D (SV40-immortalized human lung epithelian cells, EGFR WT, KRAS WT), 12 point doubling dilution 10 uM to 5 nM, alamar blue, read-out: IC50 HPL1D.
[7] abbreviates: percentage inhibition, H1975, screening concentration of 10 μM compound in 1% DMSO (v/v), read-out: R1975 PRIMARY HTS [%].
Setting [8] is: percentage inhibition, H1650, screening concentration of 10 μM compound in 1% DMSO (v/v), read-out: R1650 PRIMARY HTS [%].
Setting [9] is: percentage inhibition, H3255, screening concentration of 10 μM compound in 1% DMSO (v/v), read-out: H3255 PRIMARY HTS [%].
[10] abbreviates: percentage inhibition, H2030, screening concentration of 10 μM compound in 1% DMSO (v/v), read-out: H2030 PRIMARY HTS [%].
Where [11] appears, read: Homo sapiens, read-out: IC50 H23.
Setting [12] is: Homo sapiens, read-out: IC50 H1118.
Setting [13] is: Homo sapiens, read-out: IC50 HPL1D.
Setting [14] is: Homo sapiens, read-out: IC50 PC9.
The mark [15] stands for this setting: confirmation, percentage inhibition, 10 μM compound in 1% DMSO (v/v).
The mark [16] stands for this setting: Homo sapiens, PC9 (EGFR DclE746-A750, KRAS WT), 12 point doubling dilution 10 uM to 5 nM, alamar blue, read-out: IC50 PC9.
Setting [17] is: primary screening, 10 μM compound in 1% DMSO (v/v), read-out: percentage inhibition H1975.
Setting [18] is: primary screening, 10 μM compound in 1% DMSO (v/v), read-out: percentage inhibition H1650.
The mark [19] stands for this setting: primary screening, 10 μM compound in 1% DMSO (v/v), read-out: percentage inhibition H3255.
[20] abbreviates: primary screening, 10 μM compound in 1% DMSO (v/v), read-out: percentage inhibition H2030.
[21] abbreviates: primary screening, 10 μM compound in 1% DMSO (v/v).
Setting [22] is: Homo sapiens, H23 (EGFR WT, KRAS G12C), 12 point doubling dilution 10 uM to 5 nM, alamar blue, read-out: IC50 H23.

pIC50: −log10 of the molar value. Where two headings read alike, the source gives them in different places.

Broadly, the pIC50 is −log10 of the IC50, conventionally taken in molar units. For the compound `Cc1cccc(NC(=O)c2ccc([N+](=O)[O-])o2)c1` [compound 71762], the pIC50 in assay [1] (setting [6]) was less than 5.00.
In the case of `O=C(Nc1ccc(NC(=O)c2ccco2)c(Cl)c1)c1ccccc1` [compound 76839], the inhibition at 10 µM in assay [2] (setting [7]) was 3%; in assay [3] (setting [8]), 20%; in assay [4] (setting [9]), 2%; in assay [5] (setting [10]), -6%.
Consider `O=C(Nc1ccc(F)c(Cl)c1)c1ccc([N+](=O)[O-])o1` [compound 87200], for which the pIC50 in assay [1] (setting [6]) was less than 5.00.
With `Cc1ccc(NC(=O)c2ccc([N+](=O)[O-])o2)cc1` [compound 98697], the pIC50 in assay [1] (setting [11]) is 6.04; in assay [1] (setting [12]), 6.25; in assay [1] (setting [13]) it was less than 5.00; in assay [1] (setting [14]) it was 5.66. For the same compound, the “CONFIRMATION [%] 3255” value in assay [4] (setting [15]) was determined as 130%.
As to `O=C(Nc1ccc(Cl)cc1)c1ccc([N+](=O)[O-])o1` [compound 98698, 5-nitro-furan-2-carboxylic acid (4-chloro-phenyl)-amide], the pIC50 in assay [1] (setting [11]) is 6.22; in assay [1] (setting [12]), 6.28; in assay [1] (setting [13]) it was less than 5.00; in assay [1] (setting [14]), 5.80. Besides, in assay [2] (setting [15]), the “CONFIRMATION [%] 1975” value is reported as 57%. Further, the “CONFIRMATION [%] 2030” value in assay [5] (setting [15]) was 98%.
In the case of `Cc1cccnc1NC(=O)c1ccc([N+](=O)[O-])o1` [compound 108321], the inhibition at 10 µM was -7% in assay [2] (setting [7]), 38% in assay [3] (setting [8]), 2% in assay [4] (setting [9]) and 6% in assay [5] (setting [10]).
Take `O=c1c(Cl)c(Cl)cnn1-c1cccc(C(F)(F)F)c1` [compound 176729]: the pIC50 in assay [1] (setting [16]) was 6.05.
`O=c1c2c(cnn1-c1ccccc1)SC(c1ccccc1)S2` (stereo not shown) [compound 182826]: the inhibition at 10 µM in assay [2] (setting [17]) is 12%; in assay [3] (setting [18]), 13%; in assay [4] (setting [19]), -13%; in assay [5] (setting [20]) it was -11%.
For `N#Cc1ccccc1-n1nc(C(=O)c2cccs2)cc(-c2nc3ccccc3[nH]2)c1=N` [compound 186926] the same measures were 81%, 27%, 52% and 2%.
As to `Cc1c(Oc2ccccc2)nnn1-c1cnn(-c2ccccc2)c(=O)c1Br` [compound 223337], in assay [2] (setting [21]), the “percentage inhibition H1975” value was determined as 5%. Besides, in assay [3] (setting [21]), the “percentage inhibition H1650” value was determined as 13%. Also, the “percentage inhibition H3255” value in assay [4] (setting [21]) turned out to be 61%. Moreover, in assay [5] (setting [21]), the “percentage inhibition H2030” value was −14%.
`O=c1c(Cl)c(Cl)cnn1-c1ccccc1` [compound 257014]: the pIC50 in assay [1] (setting [11]) is 6.59; in assay [1] (setting [12]) it was 6.35; in assay [1] (setting [13]) it was 6.42; in assay [1] (setting [14]), 6.08.
As to `O=c1c(Br)c(Br)cnn1-c1ccccc1` [compound 257015], the pIC50 in assay [1] (setting [6]) was 6.52.
Regarding `Cc1ccc(-n2ncc(Cl)c(Cl)c2=O)cc1` [compound 257016], the pIC50 in assay [1] (setting [22]) is 6.49.
With `CCc1cccc(-n2ncc(Cl)c(Cl)c2=O)c1` [compound 267062], in assay [1] (setting [16]), the pIC50 is 5.82.
Turning to `CCCCc1cccc(-n2ncc(Cl)c(Cl)c2=O)c1` [compound 267063], in assay [1] (H2444 (EGFR WT, KRAS G12V), 12 point doubling dilution 10 uM to 5 nM, alamar blue, read-out: IC50 H2444), the pIC50 was 5.28.
As for `Cc1cc(-n2ncc(Cl)c(Cl)c2=O)ccc1Br` [compound 267064], in assay [1] (setting [16]), the pIC50 is less than 5.00.
In the case of `Cc1cc(-n2ncc(Cl)c(Cl)c2=O)ccc1Cl` [compound 267065], the pIC50 in assay [1] (setting [16]) is less than 5.00.
`Cc1nc2cc(-n3ncc(Cl)c(Cl)c3=O)ccc2s1` [compound 267067]: in assay [1] (setting [16]), the pIC50 is less than 5.00.
As for `Cc1ccc(-n2ncc(Cl)c(Cl)c2=O)cc1Cl` [compound 267070], the pIC50 in assay [1] (setting [6]), in assay [1] (setting [22]) and in assay [1] (setting [16]) was less than 5.00 throughout.
The compound `O=c1c(Br)c(Br)cnn1-c1cccc(C(F)(F)F)c1` [compound 267072] showed a pIC50 in assay [5] (dose response 10 μM to 5 nM) of 5.85.
As to `O=c1c(Br)c(Br)cnn1-c1ccccn1` [compound 267073], the pIC50 in assay [1] (setting [22]) was 7.15; in assay [1] (setting [16]) it was 6.38.
`O=c1c(Cl)c(Cl)cnn1-c1ccc(Cl)cc1Cl` [compound 267077]: the negative logarithm of the IC50 (pIC50) was less than 5.00 in assay [1] (setting [16]) and 5.95 in assay [4] (dose response 10 μM to 5 nM).
For `O=c1c(Cl)c(Cl)cnn1-c1ccccn1` [compound 267090], the pIC50 in assay [1] (Homo sapiens, NCI-H820, H820 (EGFR T790M/DelE746-A750, KRAS WT), 12 point doubling dilution 10 uM to 5 nM, alamar blue, read-out: IC50 H820) was 6.39; in assay [1] (setting [22]) it was 7.10.

(Values after US20130131062A1, “PYRIDAZINONES AND FURAN-CONTAINING COMPOUNDS” (priority 2006, published 2013).)
